Source: patent publication US20240294478A1, “ANTI-CANCER COMPOUNDS AND METHODS OF USE” (YALE UNIVERSITY, priority 2021, published 2024)

What was measured:
[1] = tested on: isogenic mouse embryonic fibroblasts (MEFs) proficient or deficient in XPA; experiment: Short-term cell viability, XPA proficient or deficient MEFs; format: cell-based; conditions: with or without O6BG-induced MGMT depletion
Method: Columns, mean; error bars, SD; n=2 independent analyses. For (A) and (C), points, mean; error bars, SD; n=3 technical replicates.
The potential for alternative mechanisms of action for KL-50 were probed implicating nucleotide excision repair (NER), base excision repair (BER), reactive oxygen species (ROS), and DNA duplex destabilization.
Short-term Cell Viability Assay. Cells were seeded in 96-well plates at 1000 or 2000 cells/well and allowed to adhere at 23° C. for 60 min and then incubated overnight at 37° C. Cells were treated with indicated concentrations of compounds in triplicate for 4-6 days prior to fixation with 3.7% paraformaldehyde and nuclear staining with 1 μg/mL Hoechst 33342 dye. Cells were imaged on a Cytation 3 imaging reader (BioTek) and quantified using CellProfiler software. For in vitro short-term growth delay experiments, IC50 values were determined from the nonlinear regression equation, [inhibitor] vs normalized response with variable slope.

[2] = tested on: linearized pUC19 plasmid DNA; experiment: In vitro DNA cross-linking assay; format: biochemical; conditions: 100 μM
Method: Plasmid Linearization Assay. To set up the linearization reactions, 20 units of EcoRI-HF (New England Biolabs) was mixed with 20 μg 2686 bp pUC19 vector DNA in CutSmart buffer (New England Biolabs), pH 7.9, in a total volume of 1000 μL for 30 min at 37° C. The CutSmart buffer contains 50 mM potassium acetate, 20 mM Tris acetate, 10 mM magnesium acetate, and 100 μg/mL BSA. The reacted DNA was then purified using PCR cleanup kit and quantified using the NanoDrop One (Thermo Fisher). The DNA was then stored at −20° C. before use in in vitro DNA cross-linking assays or melting temperature analysis.
In Vitro DNA Cross-linking Assays. Linearized pUC19 DNA, prepared as described above, was used for in vitro DNA cross-linking assays. For each condition, 200 ng of linearized pUC19 DNA (15.4 μM base pairs) was incubated with the indicated concentration of drug in 20 μL. Drug stock concentrations were made in DMSO such that each reaction contained a fixed 5% DMSO concentration. Reactions were conducted in 100 mM Tris buffer (pH 7.4). Cisplatin (Sigma) and DMSO vehicle were used as positive and negative controls, respectively. Reactions were conducted between 3-96 h at 37° C. The DNA was stored at −80° C. until electrophoretic analysis. For gel electrophoresis, DNA concentration was preadjusted to 10 ng/μL. […]

[3] = tested on: large MGMT−/MMR+ and MGMT−/MSH6− LN229 flank tumors; experiment: Flank tumor third study: large tumors; format: in vivo, mouse; conditions: 25 mg/kg PO MWF x 3 weeks
Excerpt: FIGS. 9A-91: KL-50 is safe and efficacious on both MGMT−/MMR+ and MGMT−/MMR-flank tumors over a wide range of treatment regimens and conditions. […] (FIG. 9C) Mean body weight of mice during LN229 flank tumor experiments. (FIG. 9D) Kaplan-Meier analysis of LN229 MGMT−/MMR− xenograft flank tumor-bearing mice to determine survival rate based on death, removal from study if mouse body weight loss exceeded 20% of initial body weight, or if tumor volume exceeded 2000 mm^3. […] (FIGS. 9H-91) Xenograft LN229 MGMT−/MMR+ and LN229 MGMT−/MSH6—flank tumors with a larger average starting tumor size of −400 mm^3 and −350 mm^3 respectively, treated with 3 weekly cycles of P.O administration of 10% cyclodextrin (n=4) or KL-50 (n=4, 3 cycles of 25 mg/kg on Monday, Wednesday, and Friday). The study period was limited by control groups which had to be euthanized for exceeding the ethical maximum allowed tumor size, thus ending the study. In all panels, points, mean; error bars, SEM; *, P<0.05; **, P<0.01; ***, P<0.001; ****, P<0.0001; ns, not significant.
The third study involved MGMT−/MMR+ and MGMT−/MSH6—(shMSH6) LN229 cells. Mice tumors were allowed to grow to a larger average starting volume of −350 mm^3 before they were randomized and administered either KL-50 (25 mg/kg MWF×3 weeks) or vehicle (10% cyclodextrin) by oral gavage. […]

[4] = Maximum tolerated dose study in healthy mice; format: in vivo
Excerpt: FIGS. 10A-10G. KL-50 is efficacious in an LN229 MGMT−/MMR− intracranial model and is well tolerated with limited myelosuppression at supratherapeutic doses. […] (FIG. 10B) Mean body change with SEM of mice during maximum tolerated dose experiment in non-tumor bearing mice. (FIGS. 10C-10G) Complete blood counts for mice pre-treatment and 7 days post-treatment with escalations of single dose KL-50 delivered PO. WBC lower limit of normal (LLN): 2.2 K/L; Neutrophils LLN: 0.42 K/L; Lymphocyte LLN: 1.7 K/L; RBC LLN: 3.47 M/L; Platelet LLN: 155 K/L. *, P<0.05; ****, P<0.0001.
Healthy mice were treated with escalating doses of KL-50 (0, 25, 50, 100, and 200 mg/kg x 1 dose), and monitored over time for changes in both weights and hematologic profiles. […]. […]

Structure (SMILES): NC(=O)c1ncn2c(=O)n(CCF)nnc12 [KL-50]
- sensitivity of XPA-deficient vs proficient MEFs [1]: no differential sensitivity
- ICLs in plasmid DNA [2]: possessed ICLs, with delayed rates of formation
- growth of large (350-400 mm^3) tumors [3]: potently suppressed the growth
- mice observably ill warranting euthanasia ([4]; 200 mg/kg x 1 dose): Two of three mice
- toxicity in remaining cohorts ([4]; 25, 50, 100 mg/kg x 1 dose): no evidence of toxicity
- complete blood counts day 7 ([4]; all cohorts, 0-200 mg/kg single dose PO): within normal physiological ranges
- tolerability, overall ([4]; escalating single doses): well-tolerated
- weight loss after treatment administration ([4]; single dose 100 or 200 mg/kg, regressed to baseline at the end of one week): greater than 10%
